The text below walks through data of patent publication US20180251425A1, “2,3,5 TRISUBSTITUTED PYRROLE DERIVATIVES AS TOPOISOMERASE INHIBITORS AND THERAPEUTIC USES THEREOF” (UNIVERSITY OF MYSORE, priority 2015, published 2018).

Test [1] concerns Nalm6. The test is described as follows: Cytotoxicity (MTT / trypan blue) in Nalm6 cells. The class given is cell-based. The conditions noted are these: Homo sapiens, NALM-6, read-out: Cytotoxicity IC 50 in μM (Cell lines) Nalm6. As to the method:
(§1) Human cancer cell lines, K562, MCF7, HeLa and HEK 293T were purchased from National Centre for Cell Science, Pune, India. Cells were grown in RPMI 1640/MEM/DMEM supplemented with 10% heat-inactivated fetal bovine serum (FBS), 100 U/mL of Penicillin, and 100 μg of streptomycin/mL and incubated at 37° C. in a humidified atmosphere containing 5% CO2.
(§2) Nalm6, Molt4 and Reh cells were provided by Dr. Sathees C. Raghavan, Department of Biochemistry, IISc, Bangalore. The cells were grown under the similar culture conditions as mentioned above.
(§3) The human T cell leukemia cell line Molt4, Human acute lymphoblastic leukemia (ALL) cell line Nalm6, Human acute myelocytic leukemia (AML) cell line Reh, chronic myelogenous leukemia (CML) cell line K562, Human breast adenocarcinoma cell lines like MCF7 and human kidney cell line HEK 293T (Human embryonic kidney cell line) were selected for the purpose of preliminary anticancer screening of newly synthesized compounds (ASR1 to ASR15). To check the cytotoxicity, trypan blue dye exclusion assays, MTT assay were employed as described earlier Further, Cell cycle analysis, Mitochondrial membrane potential, Annexin-V FITC staining assay were also performed in order to understand the mode of cell death after treatment with ASR6. Further, ASR6 was also tested for its ability to inhibit topoisomerase I and II activity in vitro.
(§4) Cytotoxic effect of the newly synthesized compounds against leukemic cells was assessed using 3-(4, 5-dimethyl-2-yl02, 5-diphenyl tetrazolium bromide (MTT) assay. After exposure of compound at different concentration (0.01, 0.1, 0.5, 1, 10, 50 and 100 μM) cells were harvested and transferred into 96 well plate, MTT (5 mg/ml) was added and incubate at 37° C. for 4 h and formazan crystals were dissolved by adding solubilizing agent (10% SDS and 50% dimethyl formamide) for 1 h, finally plate was read at 570 nm (Bio-Rad, USA). Results were represented as inhibition of percentage of cell proliferation in bar diagram (n=3) (FIGS. 1 A, C, E and G).
(§5) To determine the growth inhibitory activity of the drug, 0.5×10^5 cell/ml were plated in 24 well (Biofil, USA.) in 1 ml of complete medium and treated with various concentration of the compound to test, cells were stained with 0.4% trypan blue and counted on a hemocytometer after treatment with compounds at 48 and 72 h time point. Results were represented as number of viable cells/ml in bar diagram (FIGS. 1 B, D, F, and H) (n=3).

Test [2] deals with HeLa. Description: Cytotoxicity in HeLa cells. The class given is cell-based. The conditions noted are these: Homo sapiens, read-out: Cytotoxicity IC 50 in μM (Cell lines) HeLa. How it is done:
as §1
as §4, with “G). […]” for “G).”

Test [3] relates to Reh. Description: Cytotoxicity (MTT / trypan blue) in Reh cells. The class given is cell-based. The conditions noted are these: Homo sapiens, read-out: Cytotoxicity IC 50 in μM (Cell lines) Reh. How it is done:
as §1, §2, §3, §4, §5

Test [4] concerns Molt4 cells. Description: Cell cycle analysis (propidium iodide, flow cytometry). The following applies: Molt4 cells, 0.01, 0.1, 0.25 and 0.5 μM, concentration dependent. The test is classed as cell-based, Human. As to the method: The DNA content analysis was performed by using Flow cytometer, Molt4 cells seeded (0.5×10^5 cells/ml) in 6 well plate and treated with different concentrations of ASR6 (0.01, 0.1, 0.25 and 0.5 μM) at 37° C. for 48 h. After incubation cells were harvested, processed and fixed in 80% chilled ethanol. Overnight treated with RNase-A (50 μg/ml) incubated at 37° C. Further cells stained with propidium iodide (5 μg/ml) and cell cycle progression was monitored using flow cytometer (FACSVerse™ BD Biosciences, USA). A minimum of 10000 cells were recorded. Results were analyzed using Flowing Software (Version 2.5) and plotted histograms.
In FIG. 2 A, B histograms representing different phases of cell cycle distribution of ASR6 (0.01, 0.1, 0.25 and 0.5 μM for 24 h and 48 h) treated Molt4 cells is shown.
Background: Flow cytometry measures light scatter and fluorescence of single cells or particles in a stream.

As to `CCOC(=O)c1[nH]c(-c2ccc(Cl)cc2)cc1-c1cccnc1` [ASR6, Ethyl 5-(4-chlorophenyl)-3-(pyridin-3-yl)-1H-pyrrole-2-carboxylate], the IC50 in test [1] amounted to 0.344 µM; in test [2], 0.749 µM; in test [3], 0.36 µM. Further, the “Cell cycle progression at 24 h” value in test [4] (24 h) is listed as “G2/M arrest”. For the same molecule, the “Cell cycle progression at 48 h” value in test [4] (48 h) is “SubG1 phase (apoptosis)”.
